# Where two headings read alike, the source gives them in different places.
# Biological target: WDR5 protein (Homo sapiens (Human), UniProt P61964)
# Assay: Surface Plasmon Resonance (SPR) assay
# Format: binding
# Conditions: SPR; for residence time: τ=1/koff, read-out: Residence Time (t, min)
# [1] = Table 1, read-out: WDR5 binding affinity (KD)
# [2] = Table 2, read-out: WDR5 binding affinity SPR (KD)
Structure (SMILES),Kd [1] [nM],Kd [2] [nM],residence time [min]
"CN1CCN(c2ccc(-c3cc(OC(F)(F)F)ccc3F)cc2NC(=O)c2c[nH]c(=O)cc2C(F)(F)F)CC1 [Example 5, N-(2′-fluoro-4-(4-methylpiperazin-1-yl)-5′-(trifluoromethoxy)-[1,1′-biphenyl]-3-yl)-6-oxo-4-(trifluoromethyl)-1,6-dihydropyridine-3-carboxamide]",29,29,1.88
"Cc1c(F)ccc(C(=O)Nc2cc(-c3cc(CN4CCOCC4)ccc3F)ccc2N2CCN(C)CC2)c1Cl [Example 12, 2-chloro-4-fluoro-N-(2′-fluoro-4-(4-methylpiperazin-1-yl)-5′-(morpholinomethyl)-[1,1′-biphenyl]-3-yl)-3-methylbenzamide]",93,93,0.6
"Cc1cc(C(=O)Nc2cc(-c3ccc(OC4CCOCC4)nc3F)ccc2N2CCN(C)CC2)cc(C)c1F [Example 19, 4-fluoro-N-(5-(2-fluoro-6-((tetrahydro-2H-pyran-4-yl)oxy)pyridin-3-yl)-2-(4-methylpiperazin-1-yl)phenyl)-3,5-dimethylbenzamide]",71,71,1.44
"CN1CCN(c2ccc(-c3cc(CN4CCOCC4)ccc3F)cc2NC(=O)c2n[nH]c(=O)cc2C(F)(F)F)CC1 [Example 20, N-(2′-fluoro-4-(4-methylpiperazin-1-yl)-5′-(morpholinomethyl)-[1,1′-biphenyl]-3-yl)-6-oxo-4-(trifluoromethyl)-1,6-dihydropyridazine-3-carboxamide]",76,76,0.41
"CN1CCN(c2ccc(-c3cc(OCC4CC4)c(F)cc3F)cc2NC(=O)c2c[nH]c(=O)cc2C(F)(F)F)CC1 [Example 21, N-(5′-(cyclopropylmethoxy)-2′,4′-difluoro-4-(4-methylpiperazin-1-yl)-[1,1′-biphenyl]-3-yl)-6-oxo-4-(trifluoromethyl)-1,6-dihydropyridine-3-carboxamide]",19,19,1.75

# Continued, values first:
Kd [1] [nM],Kd [2] [nM],residence time [min],Structure (SMILES)
> 200,> 200,–,"COc1cc(C(F)(F)F)c(C(=O)Nc2cc(-c3cc(CN4CCC(C(C)C)C4)ccc3F)ccc2N2CCN(C)CC2)cn1 (stereo in doubt) [Example 53, (R)—N-(2′-fluoro-5′-((3-isopropylpyrrolidin-1-yl)methyl)-4-(4-methylpiperazin-1-yl)-[1,1′-biphenyl]-3-yl)-6-methoxy-4-(trifluoromethyl)nicotinamide]"
86,86,0.88,"CN1CCN(c2ccc(-c3cc(C(N)=O)c(O)cc3F)cc2NC(=O)c2c[nH]c(=O)cc2C(F)(F)F)CC1 [Example 4, N-(5′-carbamoyl-2′-fluoro-4′-hydroxy-4-(4-methylpiperazin-1-yl)-[1,1′-biphenyl]-3-yl)-6-oxo-4-(trifluoromethyl)-1,6-dihydropyridine-3-carboxamide]"
1000,1000,–,"COc1cccc(C(=O)Nc2cc(-c3cc(CN4CCOCC4)ccc3F)ccc2N2CCN(C)CC2)c1 [Example 10, N-(2′-fluoro-4-(4-methylpiperazin-1-yl)-5′-(morpholinomethyl)-[1,1′-biphenyl]-3-yl)-3-methoxybenzamide]"
26,26,1.36,"COC(=O)c1ccc(F)c(-c2ccc(N3CCN(C)CC3)c(NC(=O)c3c[nH]c(=O)cc3C(F)(F)F)c2)c1 [Example 14, methyl 6-fluoro-4′-(4-methylpiperazin-1-yl)-3′-(6-oxo-4-(trifluoromethyl)-1,6-dihydropyridine-3-carboxamido)-[1,1′-biphenyl]-3-carboxylate]"
14,14,4.25,"CN1CCN(c2ccc(-c3cc(CNC4CC4)ccc3F)cc2NC(=O)c2c[nH]c(=O)cc2C(F)(F)F)CC1 [Example 17, N-(5′-((cyclopropylamino)methyl)-2′-fluoro-4-(4-methylpiperazin-1-yl)-[1,1′-biphenyl]-3-yl)-6-oxo-4-(trifluoromethyl)-1,6-dihydropyridine-3-carboxamide]"
